The target in the test is Cezanne 1 (Homo sapiens (Human), UniProt Q6GQQ9). Nature of the test: Cezanne 1 biochemical IC50 assay (fluorescence polarisation, TAMRA labelled peptide linked to ubiquitin). As to conditions: Cezanne 1 biochemical IC50 assay; 30 min pre-incubation, read after 2 hr at room temperature; read-out: IC50 range. The method in brief:
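FLAG-tagged Cezanne 1, expressed in HEK293T and FLAG-purified, was preincubated with compound for 30 min at room temperature in Tris pH 7.5 buffer with Tween 20, BSA and β-mercaptoethanol. Reactions were started with 50 nM TAMRA-peptide isopeptide-linked to ubiquitin. Fluorescence polarisation (ex 540/em 590 nm) was read immediately and after 2 h.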

Chain of Cezanne 1 (Q6GQQ9 whole entry): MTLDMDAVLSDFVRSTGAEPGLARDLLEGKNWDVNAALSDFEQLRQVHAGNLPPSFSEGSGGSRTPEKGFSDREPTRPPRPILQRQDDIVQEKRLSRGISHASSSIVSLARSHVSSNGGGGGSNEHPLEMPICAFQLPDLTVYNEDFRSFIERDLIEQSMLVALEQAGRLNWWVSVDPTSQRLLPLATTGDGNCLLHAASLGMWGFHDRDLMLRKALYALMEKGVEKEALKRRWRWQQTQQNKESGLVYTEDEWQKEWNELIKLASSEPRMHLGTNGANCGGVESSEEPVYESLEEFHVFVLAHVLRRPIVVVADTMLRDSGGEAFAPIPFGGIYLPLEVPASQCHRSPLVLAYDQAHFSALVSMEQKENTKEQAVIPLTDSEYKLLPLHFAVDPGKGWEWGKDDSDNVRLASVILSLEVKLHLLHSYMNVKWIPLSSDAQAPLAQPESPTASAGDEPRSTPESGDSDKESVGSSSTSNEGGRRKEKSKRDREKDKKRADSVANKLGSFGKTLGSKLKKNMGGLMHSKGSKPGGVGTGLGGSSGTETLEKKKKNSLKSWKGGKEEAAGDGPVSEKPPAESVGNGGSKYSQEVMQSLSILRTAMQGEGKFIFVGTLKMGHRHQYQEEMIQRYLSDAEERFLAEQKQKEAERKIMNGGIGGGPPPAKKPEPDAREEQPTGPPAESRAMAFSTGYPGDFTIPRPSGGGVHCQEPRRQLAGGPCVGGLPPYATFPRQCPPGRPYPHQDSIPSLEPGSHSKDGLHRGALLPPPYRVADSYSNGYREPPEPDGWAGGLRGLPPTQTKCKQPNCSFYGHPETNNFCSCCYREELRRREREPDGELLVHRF

On to `N#CN1CCC2(C1)Oc1nc(C(=O)Nc3ccccc3F)ccc1NC2=O` (stereo not drawn) [Example 144, 1′-Cyano-N-(2-fluorophenyl)-2-oxo-1,2-dihydrospiro[pyrido[2,3-b][1,4]oxazine-3,3′-pyrrolidine]-6-carboxamide], for which the IC50 lay in the range of 0.1 to 1 µM.

Consider `Cc1cnn(C)c1-c1cnc2c(c1)NC(=O)C1(CCN(C#N)C1)N2` (stereo not drawn) [Example 146, 7-(1,4-Dimethyl-1H-pyrazol-5-yl)-2-oxo-1,4-dihydro-2H-spiro[pyrido[2,3-b]pyrazine-3,3′-pyrrolidine]-1′-carbonitrile], for which the IC50 lay within 0.1 to 1 µM.

For the compound `N#CN1CCC2(C1)Nc1nc(-c3ccccc3)ccc1NC2=O` (stereo not drawn) [Example 147, 2-Oxo-6-phenyl-1,4-dihydro-2H-spiro[pyrido[2,3-b]pyrazine-3,3′-pyrrolidine]-1′-carbonitrile], the IC50 is 1 to 10 µM.
